Experimental data from patent US20210222105A1, “A Microfluidic Cartridge, A Kit And An Assay” (CENTRE FOR CELLULAR AND MOLECULAR PLATFORMS, priority 2018, published 2021).

What was measured:
Assay type in all cases: cell-based, Escherichia coli
E. coli ATCC 25922 = experiment: Agent susceptibility phenotypic assay, microfluidic cartridge compared with 96 well plate; details: 0.5, 1, 2 and 4 μg/ml tested; 0.5 MCF inoculum; cation adjusted Muller Hinton broth; FIG. 14
Description: The agent susceptibility assay was carried out in a microfluidic cartridge. This assay was also carried out in a micro-titer plate as a standard reference control. Bacterial/clinical sample grown at suitable turbidity or at least about 0.3 to about 1.0 McFarland unit was transferred to the microchamber. The microchamber had microbial growth sensors (pH sensor) at concentration of about 5 μM to about 50 μM, cation adjusted Muller Hinton broth or suitable microbial growth media, and antibiotics concentration based on CLSI guidelines. The total reaction volume range was from about 6 μl to about 150 μl. Plate/test card were sealed using plate sealer or lamination film and incubated at about 32° C. to about 37° C., at about 300-500 rpm orbital shaking. The change in the fluorescence intensity of pH sensors was measured using fluorescence reader after every 20-60 minutes till about 4-7 hours incubation period. Thus, the susceptibility or resistance of the microorganism was assessed towards the agent.
Agent susceptibility was tested on microfluidic cartridge and the outcome compared with optimized 96 well plate. Phenotypic assay was optimized on 96 well pate, briefly, an overnight grown E. coli ATCC25922 culture was dispersed in cation adjusted muller Hinton broth to prepare inoculum of 0.5 MCF unit.

[1] = tested on: E. coli ATCC 25922 QC strain; experiment: Qualitative phenol red colour-change test of microbial growth in microfluidic cartridge and 96 well plate; details: 37° C., results in 3 hour, FIG. 15
Description: Qualitative test was performed to check microbial growth in the microfluidic cartridge. Phenol red (about 0.05% w/v) containing cation adjusted Muller Hinton broth was used as susceptibility indicator. Microbial growth changes pH and Phenol red changes color with pH variation. Thus, a colour change could provide a read-out on the susceptibility or resistance of a microorganism. No color change would indicate no growth as a response to antibiotics. Briefly, microfluidic cartridge was cleaned with water and then rinsed with 70% ethanol and then UV sterilized by exposing under UV light for about 30 minutes. To compare the susceptibility test preformed on the microfluidic cartridge and 96 well plate, master mix of about 150 μl was prepared on 96 well plate and 6 μl o the master mix was used in microchamber of the microfluidic cartridge. Both 96 well plate and microfluidic cartridge was sealed with lamination film and incubated at 37° C. and change in color intensity was recorded (illustrated in FIG. 15). […] The results were obtained in 3 hour and design of the microfluidic cartridge was suitable for microbial growth and no cross contamination was observed.

E. coli = experiment: Agent susceptibility test in microfluidic cartridge with DNA-based pH sensor (FRET, donor fluorescence); details: 5×10^5 CFU/ml, 37° C., up to 6 hour incubation, FIGS. 17, 19
Description: About 5 μM sensor was prepared and stored at about 4° C. overnight for equilibration of the sensors. Overnight grown cultures of E. coli, S. aureus, E. faecalis was picked from LB agar plate and dispersed in cation adjusted Mueller Hinton broth with 1% glucose. The concentration of the cells were adjusted to 0.5 MFU. antibiotic dilution was prepared according to CSI guidelines. Stock solutions were prepared in 96 well plate using 23 μl of cation adjusted Muller Hinton broth, 25 μl of desired concentration of antibiotic and 2 μl of 5 μM sensors. Then 50 μl of 1×10^6 CFU/ml inoculum was added in wells to achieve inoculum size 5×10^5 CFU/ml in final assay volume. Each stock solution was loaded on microfluidic cartridge. Microfluidic cartridge was sealed with polypropylene sealing film and incubated at 37° C. with 70% humidity. The change in the donor fluorescence intensity was recorded till 6 hour incubation. Each microchamber of the microfluidic cartridge was image using 1×73 Olympus inverted fluorescence microscope. Images were analyzed using ImageJ version 1.8.0. the average was taken over replicate and standard deviation was calculated (illustrated in FIG. 18).

| Structure (SMILES) | amikacin concentration at which E. coli ATCC 25922 showed susceptibility (E. coli ATCC 25922) | change in colour of indicator dye (phenol red) ([1]; amikacin concentration above 2 μg/ml) | change in colour of indicator dye (phenol red) ([1]; at 0.5 and 1 ug/ml amikacin) | sensitivity cut of value (E. coli) |
| --- | --- | --- | --- | --- |
| NCC[C@H](O)C(=O)N[C@@H]1C[C@H](N)[C@@H](O[C@H]2O[C@H](CN)[C@@H](O)[C@H](O)[C@H]2O)[C@H](O)[C@H]1O[C@H]1O[C@H](CO)[C@@H](O)[C@H](N)[C@H]1O [amikacin] | 2 µg/mL | no change in the color intensity | change in the color of indicator dye |  |
| CCN1CCN(C(=O)N[C@@H](C(=O)N[C@@H]2C(=O)N3[C@@H]2SC(C)(C)[C@@H]3C(=O)O)c2ccccc2)C(=O)C1=O [piperacillin] |  |  |  | about 2 μg/ml |
